Assay results as given in ChEMBL document CHEMBL1275469, “VIM-15 and VIM-16, two new VIM-2-like metallo-beta-lactamases in Pseudomonas aeruginosa isolates from Bulgaria and Germany” (2008).
≈ marks a conversion by molar mass, not a printed value.

Experiments:
Escherichia coli [1] = assay: Antimicrobial activity against Escherichia coli DH5alpha harboring beta-lactamase VIM-2 by agar dilution method; type: functional; settings: DH5[alpha]
Escherichia coli [2] = assay: Antimicrobial activity against Escherichia coli DH5alpha harboring beta-lactamase VIM-16 by agar dilution method; type: functional; settings: DH5[alpha]
Escherichia coli [3] = assay: Antimicrobial activity against Escherichia coli DH5alpha harboring beta-lactamase VIM-15 by agar dilution method; type: functional; settings: DH5[alpha]
Escherichia coli [4] = assay: Antimicrobial activity against Escherichia coli DH5alpha by agar dilution method; type: functional; settings: DH5[alpha]
Pseudomonas aeruginosa [5] = assay: Antimicrobial activity against Pseudomonas aeruginosa 166301 expressing beta-lactamase VIM-16 obtained from urine of patient by agar dilution method; type: functional
Pseudomonas aeruginosa [6] = assay: microbe, parasite or virus in culture; settings: Pseudomonas aeruginosa, 9551, Urine
Pseudomonas aeruginosa [7] = assay: Activity of Pseudomonas aeruginosa 9551 beta-lactamase VIM-15
Pseudomonas aeruginosa [8] = assay: Ratio of Kcat to Km for Pseudomonas aeruginosa 166301 beta-lactamase VIM-16 relative to cephaloridine
Pseudomonas aeruginosa [9] = assay: Activity of Pseudomonas aeruginosa 166301 beta-lactamase VIM-16 relative to cephaloridine
Pseudomonas aeruginosa [10] = assay: Ratio of Kcat to Km for Pseudomonas aeruginosa 166301 beta-lactamase VIM-16
Pseudomonas aeruginosa [11] = assay: Activity of Pseudomonas aeruginosa 166301 beta-lactamase VIM-16
Pseudomonas aeruginosa [12] = assay: Activity of Pseudomonas aeruginosa 9551 beta-lactamase VIM-15 relative to cephaloridine
Pseudomonas aeruginosa [13] = assay: Ratio of Kcat to Km for Pseudomonas aeruginosa 9551 beta-lactamase VIM-15
Pseudomonas aeruginosa [14] = assay: Ratio of Kcat to Km for Pseudomonas aeruginosa 9551 beta-lactamase VIM-15 relative to cephaloridine
[15] = target: Beta-lactamase VIM-2 (Pseudomonas aeruginosa) (UniProt Q9K2N0); assay: Ratio of Kcat to Km for Pseudomonas aeruginosa COL-1 beta-lactamase VIM-2 relative to cephaloridine
[16] = target: Beta-lactamase VIM-2 (Pseudomonas aeruginosa) (UniProt Q9K2N0); assay: Activity of Pseudomonas aeruginosa COL-1 beta-lactamase VIM-2 relative to cephaloridine
Escherichia coli [17] = assay: Antimicrobial activity against Escherichia coli DH5alpha harboring beta-lactamase VIM-15 by agar dilution method in presence of beta-lactamase inhibitor Tazobactam; type: functional; settings: DH5[alpha]
Escherichia coli [18] = assay: Antimicrobial activity against Escherichia coli DH5alpha by agar dilution method in presence of beta-lactamase inhibitor Tazobactam; type: functional; settings: DH5[alpha]
Pseudomonas aeruginosa [19] = assay: Antimicrobial activity against Pseudomonas aeruginosa 9551 expressing beta-lactamase VIM-15 obtained from urine of patient by agar dilution method in presence of beta-lactamase inhibitor Tazobactam; type: functional; settings: Pseudomonas aeruginosa, 9551, Urine
Escherichia coli [20] = assay: Antimicrobial activity against Escherichia coli DH5alpha harboring beta-lactamase VIM-2 by agar dilution method in presence of beta-lactamase inhibitor Tazobactam; type: functional; settings: DH5[alpha]
Pseudomonas aeruginosa [21] = assay: Antimicrobial activity against Pseudomonas aeruginosa 166301 expressing beta-lactamase VIM-16 obtained from urine of patient by agar dilution method in presence of beta-lactamase inhibitor Tazobactam; type: functional; settings: Pseudomonas aeruginosa, 166301, Urine
Escherichia coli [22] = assay: Antimicrobial activity against Escherichia coli DH5alpha harboring beta-lactamase VIM-16 by agar dilution method in presence of beta-lactamase inhibitor Tazobactam; type: functional; settings: DH5[alpha]
[23] = Pseudomonas aeruginosa, 166301, Urine

| Molecule | MIC (Escherichia coli [1]) [µg/mL] | MIC (Escherichia coli [2]) [µg/mL] | MIC (Escherichia coli [3]) [µg/mL] | MIC (Escherichia coli [4]) [µg/mL] | MIC (Pseudomonas aeruginosa [5]; [23]) [µg/mL] | MIC (Pseudomonas aeruginosa [6]) [µg/mL] | Km (Pseudomonas aeruginosa [7]) [µM] | kcat (Pseudomonas aeruginosa [7]) [s⁻¹] | Activity (Pseudomonas aeruginosa [8]) [%] | Activity (Pseudomonas aeruginosa [9]) [%] | kcat/Km (Pseudomonas aeruginosa [10]) [M⁻¹ s⁻¹] | Km (Pseudomonas aeruginosa [11]) [µM] | kcat (Pseudomonas aeruginosa [11]) [s⁻¹] | Activity (Pseudomonas aeruginosa [12]) [%] | kcat/Km (Pseudomonas aeruginosa [13]) [M⁻¹ s⁻¹] | Activity (Pseudomonas aeruginosa [14]) [%] | also measured |
| --- | --- | --- | --- | --- | --- | --- | --- | --- | --- | --- | --- | --- | --- | --- | --- | --- | --- |
| CC1(C)S[C@@H]2[C@H](NC(=O)[C@H](N)c3ccc(O)cc3)C(=O)N2[C@H]1C(=O)O [AMOXICILLIN] | 256 (≈ 701 µM) | 256 (≈ 701 µM) | 256 (≈ 701 µM) | 4 (≈ 10.9 µM) | > 512 | 512 (≈ 1400 µM) |  |  |  |  |  |  |  |  |  |  |  |
| CO/N=C(\C(=O)N[C@@H]1C(=O)N2C(C(=O)O)=C(COC(C)=O)CS[C@H]12)c1csc(N)n1 [CEFOTAXIME] | 1 (≈ 2.2 µM) | 2 (≈ 4.39 µM) | 4 (≈ 8.78 µM) | 0.03 (≈ 0.0659 µM) | > 256 | > 256 | 13 | 90 | 530 | 91 | 340000 | 240 | 81 | 47 | 6.9e+06 | 300 |  |
| C[C@@H](O)[C@H]1C(=O)N2C(C(=O)O)=C(SCCNC=N)C[C@H]12 [IMIPENEM ANHYDROUS] |  |  | 0.5 (≈ 1.67 µM) |  | > 128 | > 128 | 7.3 | 61 | 800 | 51 | 510000 | 89 | 45 | 32 | 8.4e+06 | 370 | Activity [15]: 380%; Activity [16]: 17% |
| C[C@H]1[C@H](NC(=O)/C(=N\OC(C)(C)C(=O)O)c2csc(N)n2)C(=O)N1S(=O)(=O)O [AZTREONAM] | 0.016 (≈ 0.0367 µM) | 0.016 (≈ 0.0367 µM) | 0.016 (≈ 0.0367 µM) | 0.016 (≈ 0.0367 µM) | 32 (≈ 73.5 µM) | 16 (≈ 36.7 µM) |  | < 0.031 |  | < 0.12 |  |  | < 0.11 | < 0.016 |  |  |  |
| CO/N=C(\C(=O)N[C@@H]1C(=O)N2C(C(=O)[O-])=C(C[N+]3(C)CCCC3)CS[C@H]12)c1csc(N)n1 | 0.03 (≈ 0.0624 µM) | 0.03 (≈ 0.0624 µM) | 0.03 (≈ 0.0624 µM) | 0.016 (≈ 0.0333 µM) | 32 (≈ 66.6 µM) | 32 (≈ 66.6 µM) | 130 | 9.5 | 2.3 | 0.35 | 1500 | 210 | 0.31 | 5 | 76000 |  |  |
| O=C(Cc1cccs1)N[C@@H]1C(=O)N2C(C(=O)[O-])=C(C[n+]3ccccc3)CS[C@H]12 |  |  |  |  |  |  | 83 | 190 | 100 | 100 | 64000 | 1400 | 89 | 100 | 2.3e+06 | 100 | Activity [15]: 100%; Activity [16]: 100% |
| CC(C)(O/N=C(\C(=O)N[C@@H]1C(=O)N2C(C(=O)[O-])=C(C[n+]3ccccc3)CS[C@H]12)c1csc(N)n1)C(=O)O [CEFTAZIDIME] | 1 (≈ 1.83 µM) | 0.5 (≈ 0.915 µM) | 0.5 (≈ 0.915 µM) | 0.13 (≈ 0.238 µM) | 64 (≈ 117 µM) | 64 (≈ 117 µM) | 37 | 1 | 2.2 | 0.25 | 1400 | 150 | 0.22 | 0.53 | 27000 | 1.2 |  |
| CC1(C)S[C@@H]2[C@H](NC(=O)Cc3ccccc3)C(=O)N2[C@H]1C(=O)O |  |  |  |  |  |  |  |  | 800 |  |  |  |  |  |  |  |  |
| CCN1CCN(C(=O)N[C@@H](C(=O)N[C@@H]2C(=O)N3[C@@H]2SC(C)(C)[C@@H]3C(=O)O)c2ccccc2)C(=O)C1=O [PIPERACILLIN] |  |  |  |  |  |  |  |  |  |  |  |  |  |  |  |  | MIC (Escherichia coli [17]): 8 µg/mL; MIC (Escherichia coli [18]): 1 µg/mL; MIC (Pseudomonas aeruginosa [19]): 128 µg/mL; MIC (Escherichia coli [20]): 4 µg/mL; MIC (Pseudomonas aeruginosa [21]): 128 µg/mL; MIC (Escherichia coli [22]): 8 µg/mL |
| NC[C@H]1O[C@H](O[C@H]2[C@H](O)[C@@H](O[C@H]3O[C@H](CO)[C@@H](O)[C@H](N)[C@H]3O)[C@H](N)C[C@@H]2N)[C@H](N)C[C@@H]1O [TOBRAMYCIN] | 0.25 (≈ 0.535 µM) | 0.25 (≈ 0.535 µM) | 0.25 (≈ 0.535 µM) | 0.25 (≈ 0.535 µM) | > 128 | 8 (≈ 17.1 µM) |  |  |  |  |  |  |  |  |  |  |  |
| GENTAMICIN | 0.13 | 0.13 | 0.13 | 0.13 |  |  |  |  |  |  |  |  |  |  |  |  | MIC (Pseudomonas aeruginosa [5]): > 128 µg/mL |
| C[C@@H](O)[C@H]1C(=O)N2C(C(=O)O)=C(S[C@@H]3CN[C@H](C(=O)N(C)C)C3)[C@H](C)[C@H]12 [MEROPENEM] | 0.03 (≈ 0.0782 µM) | 0.03 (≈ 0.0782 µM) | 0.03 (≈ 0.0782 µM) | 0.016 (≈ 0.0417 µM) | > 128 | 128 (≈ 334 µM) |  |  | 110 |  |  |  |  |  |  |  | Activity [15]: 62%; Activity [16]: 1.8% |
